{"source": "paper PMC5848173", "about": "“PhcrTx2, a New Crab-Paralyzing Peptide Toxin from the Sea Anemone Phymanthus crucifer” (Toxins, 2018)", "key": {"[1]": {"settings": "Anthopleura elegantissima toxins; ref [5],[38]; cited from earlier work", "excerpt": "(§1) The inhibition of PhcrTx2 on glutamate-gated currents in snail neurons, and also on voltage-activated K^+ currents in DRG neurons, seems to be of about similar potency and slightly different in efficacy. PhcrTx2 also acted on voltage-dependent Na^+-channels of DRG neurons but with lower efficacy, in comparison with its effect on K^+ channels. […] These facts resemble previous re ..."}, "crabs": {"test_system": "crabs", "settings": "Antheopsis maculata toxin; ref [21]; cited from earlier work", "excerpt": "Many of these peptides have been classified as voltage-gated sodium channel toxins, whereas few other crab-paralyzing peptides act on different targets, such as voltage-gated potassium channels. On the other hand, other paralyzing toxins seem to belong to new classes of toxins. In this work, we found a diversity of paralyzing toxins from the sea anemone P. crucifer by using a crab toxicity assay for biological activity screening during the purification process. Sixteen chromatographic fractions sh ... || (+ 1 further places)"}, "[2]": {"test_system": "glutamate-gated currents in snail neurons", "assay": "Glutamate-gated currents in isolated snail neurons (whole-cell patch clamp)", "assay_type": "cell-based, Helix aspersa", "settings": "glutamate 1 mM", "experimental": "The effects of PhcrTx2 were studied in isolated mammalian and snail neurons using the whole cell patch-clamp technique. Animal care and procedures were in accordance with the National Institutes of Health Guide for the Care and Use of Laboratory Animals. All efforts were made to minimize animal suffering. The number of animals used for this work was kept to the minimum necessary for a meaningful interpretation of the data.\nExperiments to study glutamate-activated currents were performed in isolated neurons of the land snail Helix aspersa. The subesophageal mass of the snail was dissected, and put into the Ringer solution for snails (Supplementary Table S4) containing trypsin (2 mg/mL for 30 min, at 37 °C). After enzymatic treatment, the preparation was washed with normal solution for snails, and the neurons were mechanically dissociated, plated on glass coverslips (Corning) pretreated with poly-D-lysine (Sigma-Aldrich), and placed onto 35-mm culture dishes (Corning). Neurons were maintained at room temperature (23–25 °C) for at least 30 min before using, in order to allow the isolated cells to adhere to the coverslips. The whole-cell recording was carried out using the same experimental conditions that were described in Section 5.2.2.\nGlutamate currents were elicited by a fast glutamate application (about 40 ms) by shifting one of the three outlets of a fast change perfusion system (SF-77B, Warner Inst., Hamden, CT, USA) while keeping the cell at a holding potential (Vh) of −100 mV. The interval between glutamate applications was one minute, to guarantee that the current completely recovered from desensitization. The pH of glutamate solution was checked before each experiment to avoid the potential activation of proton-gated currents. At the beginning of this study, experiments were designed to compare the effect of the toxin using two application protocols.\nThe solutions used in the experiments are depicted in Supplementary Table S4. The concentration-response curves were fitted to the Hill equation following the procedure described in Section 5.2.2."}, "ASIC3": {"test_system": "ASIC3", "settings": "ref [38], cited from earlier work", "excerpt": "as §1"}, "[3]": {"test_system": "insect and mammalian Nav channels", "settings": "ref [38],[58]; cited from earlier work", "excerpt": "as §1"}, "[4]": {"test_system": "heteromeric channels that contain the ASIC3 subunit", "settings": "except the ASIC2a + 3 current; ref [38]; cited from earlier work", "excerpt": "as §1"}, "Kv3.4 channels": {"test_system": "Kv3.4 channels", "settings": "ref [38],[58]; cited from earlier work", "excerpt": "as §1"}}, "note": "No end group written: not given here.", "data": [{"molecule": "APETx1: toxin from Anthopleura elegantissima (UniProtKB P61541) (GTTCYCGKTIGIYWFGTKTCPSNRGYTGSCGYFLGICCYPVD; UniProt P61541 1-42, looked up)", "values": [{"measurement": "target selectivity", "setting": "[1]", "result": "lack of target selectivity"}]}, {"molecule": "Am II: crab-paralyzing toxin from Antheopsis maculata (UniProtKB P69930) (ALLSCRCEGKTEYGDKWLFHGGCPNNYGYNYKCFMKPGAVCCYPQN; ends and bridges not checked; cysteine pairing not given here; UniProt P69930 33-78, looked up)", "values": [{"measurement": "crab-paralyzing activity", "setting": "crabs", "result": "crab-paralyzing toxin"}]}, {"molecule": "N[C@@H](CCC(=O)O)C(=O)O", "note": "[glutamate]", "values": [{"measurement": "glutamate-evoked current at positive potential", "setting": "[2]; 80 mV, n = 5", "result": "0.3 ± 0.1", "unit": "nA"}, {"measurement": "glutamate-evoked current", "setting": "[2]; holding potential −100 mV, n = 5, average", "result": "about 2.6 ± 1.4 nA"}, {"measurement": "reversal potential of glutamate-evoked current", "setting": "[2]; average, \"close to\"", "result": "~0", "unit": "mV"}]}, {"molecule": "APETx2: toxin from Anthopleura elegantissima, ASIC3 blocker (UniProtKB P61542) (GTACSCGNSKGIYWFYRPSCPTDRGYTGSCRYFLGTCCTPAD; UniProt P61542 1-42, looked up)", "values": [{"measurement": "IC50", "setting": "ASIC3; reversible blocker, read-out: IC50, peak component of the ASIC3 current", "result": 63, "unit": "nM"}, {"measurement": "effect on the sustained component of ASIC3 current", "setting": "ASIC3; sustained component", "result": "no effect"}, {"measurement": "effect on Nav channels", "setting": "[3]", "result": "inhibiting the sodium conductance without affecting the inactivation and shifting activation to a depolarizing direction"}, {"measurement": "target selectivity", "setting": "[1]", "result": "lack of target selectivity"}, {"measurement": "effect on heteromeric channels containing ASIC3", "setting": "[4]", "result": "affects heteromeric channels that contain the ASIC3 subunit, except the ASIC2a + 3 current"}, {"measurement": "inhibition of Kv3.4 channels", "setting": "Kv3.4 channels", "result": "partially inhibits Kv3.4 channels"}]}]}
